# Assay results published in US20260152533A1, “COMBINATION INHIBITORS FOR TREATING FIBROSIS” (Memorial Sloan-Kettering Cancer Center, priority 2021, published 2026).
# Assays:
# Format in all cases: cell-based, mouse
# [1] = system: pyruvate carboxylase (PC); test: Stable isotope tracing in NIH-3T3 cells (surrogate for PC activity)
# Protocol: Cells were plated in six-well cell culture plates at a concentration aimed to reach 0.5-1×10^6 cells at the time of harvest. For quantification of relative metabolite abundance, cells were cultured with glutamine-free DMEM containing different concentrations of L-glutamine and supplemented with 10% dialyzed FBS and in some experiments were treated with TGFβ for 48 hours. For the [U-^13C]and [3,4-^13C]glucose tracing experiments, cells were cultured as above, and in the last 8 hours media was replaced with DMEM without D-glucose and L-glutamine supplemented with 2 mM or 0.2 mM L-glutamine and 10 mM [U-^13C]or [3,4-^13C]D-glucose (Cambridge Isotope Laboratories) and 10% dialyzed FBS. For the [U-^13C]and [1-^13C]lactate tracing experiments, cells were cultured in 2 or 0.2 mM L-glutamine, 10 or 1 mM D-glucose in the presence or absence of 10 mM sodium lactate, and in the last 8 hours media was replaced with DMEM without D-glucose and L-glutamine supplemented with 2 mM or 0.2 mM L-glutamine, 10 or 1 mM D-glucose, 10 mM [U-^13C]or [1-^13C]sodium lactate (Cambridge Isotope Laboratories) and 10% dialyzed FBS. For relative quantification of metabolites by gas chromatography-mass spectroscopy (GC-MS), cells were washed briefly with PBS, which was then fully aspirated and metabolism was quenched by immediately adding 1 mL of 80:20 methanol:water stored at −80° C. containing 20 μM deuterated 2-hydroxyglutarate (d5-2HG) as an internal standard. For stable isotope tracing experiments, metabolism was quenched without the PBS washing step by adding 1 mL of 80:20 methanol:water as above. After overnight incubation at −80° C., the resulting extracts were scraped on dry ice, transferred into a 1.5 mL centrifuge tube, and centrifuged at 20,000 g for 20 minutes at 4° C. The supernatants were collected in clean tubes and dried in a vacuum evaporator (Genevac EZ-2 Elite) for 2 hours.
# For [U-^13C]glucose tracing into proteinogenic amino acids, cells were cultured in 10% Gln in the presence or absence of TGFβ for 48 hours. In the last 24 hours, the media including all treatments was replaced with DMEM without L-glutamine and D-glucose and supplemented with 0.2 mM L-glutamine and 10 mM [U-^13C]D-glucose (Cambridge Isotope Laboratories) and 10% dialyzed FBS. For [U-^13C]lactate tracing into ECM, confluent cells were cultured in 10% Gln in the presence of 10 mM [U-^13C]sodium lactate for 6 days. The media was replaced every other day. ECM was decellularized as described above. Cells and ECM were washed with PBS, and proteins were precipitated with methanol:chloroform:water (1:1:1). The interphase was washed with methanol, and the dried pellet was subjected to acid hydrolysis with 6 N hydrochloric acid (HCl) and incubation at 95° C. for 16 hours. Samples were cooled to room temperature and centrifuged at 20,000 g for 10 minutes. The cleared supernatant was dried in a vacuum evaporator (Genevac EZ-2 Elite) for 2 hours, and abundance of aspartate, glutamate/glutamine or hydroxyproline isotopologues was measured by GC-MS as described below.
# GC-MS measurements were performed as described before^11. Ions used for quantification of metabolite levels were as follows: d5-2HG m/z 354; citrate m/z 465; alpha-ketoglutarate m/z 304; succinate m/z 247; fumarate m/z 245; malate m/z 335; aspartate m/z 232; hydroxyproline m/z 332; proline m/z 216; glutamate m/z 246; glutamine m/z 245; lactate m/z 219; pyruvate m/z 174. All peaks were manually inspected and verified relative to known spectra for each metabolite. Peak identification and integration were done with MassHunter software vB.09 (Agilent Technologies). For relative quantification of cell samples, integrated peak areas were normalized to the internal standard d5-2HG and to the packed cell volume of each sample. Absolute quantification of hydroxyproline in tumor acid hydrolysates was performed against a standard curve of commercial trans-4-hydroxy-L-proline (Sigma). […]
# [2] = system: pancreatic stellate cells (PSCs); test: Collagen abundance in ECM derived from confluent PSCs; details: Gln 20% or lower, TGFβ (FIG. 8C)
# Protocol: (§1) Culture plates were coated with 0.1% gelatin (Sigma) and treated with 1% glutaraldehyde (Sigma) and 1 M ethanolamine (Sigma). Confluent NIH-3T3 cells, MFBs or PSCs were grown for 6 days on coated plates in the presence of […] sodium ascorbate (Sigma) and treated as indicated, and the medium was replaced every other day. Plates were decellularized with 20 mM ammonium hydroxide/0.5% Triton-X 100 for 5 min on a rotating platform. Three times the volume of PBS was added, and ECM was equilibrated overnight at 4° C., followed by four additional PBS washes. For western blot, preheated sample buffer supplemented with 1 mM dithiothreitol (DTT) was added, ECM was scraped off and boiled, and proteins were separated by SDS-PAGE followed by immunoblotting. To measure collagen abundance, fibroblast-derived ECM was stained with the Picro Sirius Red Stain Kit (Abcam) according to the manufacturer's instructions. The stain was extracted with 0.1 M sodium hydroxide (NaOH) and optical density was measured at 550 nm using a microplate reader. Differences in cell number were controlled for by growing cells on separate plates under the same experimental conditions.
# [3] = system: mammary fibroblasts (MFBs); test: Collagen abundance in ECM derived from confluent MFBs; details: Gln 20% or lower, TGFβ (FIG. 8F)
# Protocol: as §1
substance,measurement,setting,value
TGFβ: transforming growth-factor beta; TGFβ-1 purchased from Peprotech,m+3 labelling of aspartate and glutamate/glutamine incorporated into cellular protein,"[1]; 10% Gln, TGFβ 48 hours (FIG. 10I)",reduced
same,"m+2 labelling of citrate, indicative of PDH activity",[1]; TGFβ 48 hours (FIG. 3E),increased
same,m+3 and/or m+5 labelling of the metabolites analysed from [U-13C]Glc,"[1]; high and low Gln medium, TGFβ 48 hours (FIG. 3E)",reduced
same,"low-Gln increase of m+1 labelling of aspartate, malate and citrate from [3,4-13C]Glc (PC activity)","[1]; low Gln, TGFβ 48 hours (FIGS. 3G and 3H)",suppressed
same,collagen accumulation in the ECM,[2],could no longer stimulate
same,collagen accumulation in the ECM,[3],could no longer stimulate
